From patent publication US20040202728A1, “Method for the destruction of oocysts” (priority 2001, published 2004)

Tested on: Cryptosporidium oocysts
Assay: Microelectrophoresis of oocysts in the presence of water treatment coagulants
Method: The zeta potentials of Cryptosporidium oocysts in the presence 5 mg/L ferric chloride were studied over a pH range 3-10.
As with the ferric flocs, it was possible to differentiate between the alum flocs and the oocyst in solution because of their different size, shape and scattering ability. The zeta potentials of Cryptosporidium oocysts in the presence of 6.8 mg/L alum were studied over a pH range 4-8.

SMILES: O=S(=O)([O-])[O-].O=S(=O)([O-])[O-].O=S(=O)([O-])[O-].[Al+3].[Al+3] [alum]
- adsorption of coagulant species to oocysts (from zeta potentials) (6.8 mg/L, pH range 4-8): chemisorbed to the oocyst surface

SMILES: [Cl][Fe]([Cl])[Cl] [ferric chloride]
- adsorption of coagulant species to oocysts (from zeta potentials) (5 mg/L, pH range 3-10): no adsorption
